Reference: patent EP0139627A1, “Process for the preparation of 5,10-dihydro-1H-dibenzo [B,E] [1,4] diazepin-11-ones substituted in position 5” (ARZNEIMITTELWERK DRESDEN GmbH, priority 1983, dated 1985)
Where two headings read alike, the source gives them in different places.

What was measured:
[1] = system: streßinduzierten Magenulzera; test: Inhibition of stress-induced gastric ulcers (immobilisation ulcer, method of Brodie); type: in vivo, Ratten; conditions: Rattus norvegicus, read-out: Immobilisationsulkus ED50
Text: Die Hemmwirkung auf die Bildung von streßinduzierten Magenulzera wurde nach der Methode von D.A.Brodie, Gastroenterolody, 38 (1960), 50, an weiblichen Ratten im Gewicht von 150 - 180 Gramm vom VEB Versuchstierproduktion Schönwalde bestimmt. Die Nahrungskarenz vor Versuchsbeginn betrug 48 Stunden, bei Wasser ad libitum. Die Testsubstanzen wurden unmittelbar vor Versuchsbeginn oral, mittels Schlundsonde appliziert. Die Immobilisation erfolgte mittels Gipsbinden über 18 Stunden. Während der Versuchsdauer war die Raumtemperatur konstant 20° C. Nach Versuchsende wurden die Tiere durch Äther getötet, die Mägen entnommen, entlang der kleinen Kurvatur aufgeschnitten und die Drüsenschleimhautdefekte nach Zahl und Länge im Vergleich zur Kontrollgruppe beurteilt. Für die statistische Berechnung diente die Probit-Regressions-Analyse.

[2] = system: Größe der Pupille; conditions: mouse, in vivo, po
Text: (§1) Die Wirkung der Substanzen auf die Größe der Pupille wurde an weiblichen Mäusen im Gewicht zwischen 18 und 23 Gramm nach der Versuchsordnung von R.Pulewka, Exp.Pathol. […] 30, 60, 90, 120, 180 und 240 Minuten nach oraler Präparatgabe wurde die Pupillenweite bestimmt und die x-fache Veränderung zum Ausgangswert berechnet. Als ED3-fach gilt die Dosis, bei der eine dreifache Pupillenerweiterung im Vergleich zum Ausgangswert auftritt.

[3] = system: phenylbutazoninduzierte Magenulzera; test: Inhibition of phenylbutazone-induced gastric ulcers (model of Beattie et al.); type: in vivo, Ratten; conditions: Rattus norvegicus, 48 h; female rats, oral dose half an hour before each s.c. injection of 150 mg/kg Phenylbutazon on two days; read-out: Phenylbutazonulkus ED50
Experimental: Die Hemmwirkung der Verbindungen auf phenylbutazoninduzierte Magenulzera wurde in Anlehnung an das Modell von Beattie und Mitarbeiter, Arzneimittelforschung, 29, (1979), 1812 ermittelt. Für die Untersuchung kamen weibliche Ratten der hauseigenen Zucht im Gewicht von 150 - 180 Gramm zur Anwendung.
Die Nahrungskarenz vor Versuchsbeginn betrug 24 Stunden, bei Wasser ad libitum. Während des Versuchs wurden die Tiere im Klimaraum bei einer Temperatur zwischen 22° C und 23° C gehalten. Die Ratten erhielten zwei Tage hintereinander jeweils 7 Uhr morgens eine s.c. Injektion von 150 mg/kg Phenylbutazon und die Tötung erfolgte sechs Stunden nach der letzten Injektion durch Nackenschlag. Die herauspräparierten Mägen wurden entlang der kleinen Kurvatur aufgeschnitten und die Schleimhautdefekte nach Zahl und Länge beurteilt. Die Applikation der Prüfsubstanzen erfolgte oral, eine halbe Stunde vor jeder Phenylbutazoninjektion.

[4] = in vivo; conditions: mouse, male and female mice, oral, read-out: akute Toxizität LD50
Text: Die akute Toxizität wurde an jeweils 5 männlichen und 5 weiblichen Mäusen im Gewicht von 18 - 23 Gramm pro dosi bestimmt. Die Applikation der Prüfsubstanzen erfolgte oral. Die Berechnung der LD50 wurde nach Litchfield und Wilcoxon durchgeführt.

[5] = system: Größe der Pupille; test: Effect on pupil size (mydriasis, method of Pulewka); conditions: female mice, oral; dose that widens the pupil three-fold versus baseline
Text: as §1

[6] = female rats, oral dose immediately before start, immobilisation for 18 hours, probit regression analysis

CN1C(=O)c2ccccc2N(C(=O)CN2CCN(C(=O)c3ccco3)CC2)c2ccc(Cl)cc21 [D, 8-Chlor-5, 10-dihydro-5-(2-{4-[(2-furanyl)-carbonyl]-1-piperazinyl}-acetyl)-10-methyl-11H-dibenzolbenzo[b,e][1,4]-diazepin-11-on]
ED50 [1, 6]: 26 mg/kg | Pupillomotorik ED3-fach [2]: 250 mg/kg | ED50 [3]: 36 mg/kg | LD50 [4]: 1600 mg/kg

CN1CCN(CC(=O)N2c3ccccc3C(=O)Nc3cccnc32)CC1 [Pi renzepin, Pirenzepin, reference compound]
ED50 [1, 6]: 11 mg/kg | ED50 [3]: 18 mg/kg | Pupillomotorik ED3-fach [5]: 30 mg/kg

O=C1Nc2ccccc2N(C(=O)CN(CCO)CCO)c2ccccc21 [B, 5,10-Dihydro-5-[bis-(2-hydroxyäthyl) -aminoacetyl]-11H-dibenzo[b,e][1,4] diazepin-11-on]
ED50 [1, 6]: 1 mg/kg | Pupillomotorik ED3-fach [2]: 4 mg/kg | ED50 [3]: 1.6 mg/kg | LD50 [4]: 2000 mg/kg

O=C1Nc2cc(Cl)ccc2N(C(=O)CN(CCO)CCO)c2ccccc21 [A, 8-Chlor-5,10-dihydro-5-[bis-(2-hydroxyäthyl)amino-acetyl]-11H-dibenzo[b,e] [1,4]diazepin-11-on]
ED50 [1, 6]: 6 mg/kg | Pupillomotorik ED3-fach [2]: 30 mg/kg | ED50 [3]: 5 mg/kg | LD50 [4]: 2000 mg/kg

CN1C(=O)c2ccccc2N(C(=O)CN(CCO)CCO)c2ccccc21 [E, 5,10-Dihydro-10-methyl-5-[bis-{2-hydroxyäthyl)-amino-acetyl]-11H-dibenzo[b,e] [1,4]diazepin-11-on]
ED50 [1, 6]: 27 mg/kg | Pupillomotorik ED3-fach [2]: 95 mg/kg | ED50 [3]: 22 mg/kg | LD50 [4]: 1000 mg/kg

O=C1Nc2ccccc2N(C(=O)CN2CCN(C(=O)c3ccco3)CC2)c2ccccc21 [C, 5,10-Dihydro-5-(2-{4-[(2-furanyl)-carbonyl] -1-piperazinyl}-acetyl)-11H-dibenzo[b,e] [1,4]diazepin-11-on]
ED50 [1, 6]: 14 mg/kg | Pupillomotorik ED3-fach [2]: 67 mg/kg | ED50 [3]: 20 mg/kg | LD50 [4]: 2000 mg/kg

CN1C2CCC1CC(OC(=O)C(CO)c1ccccc1)C2 (racemic) [Atropin, reference compound]
ED50 ([1]; po, 18 h): 0.6 mg/kg | Pupillomotorik ED3-fach [2]: 0,8 mg/kg
